We go through 16 molecules from patent publication US6462171B1, “Peptides and pharmaceutical compositions thereof for treatment of disorders or diseases associated with abnormal protein folding into amyloid or amyloid-like deposits” (New York University, priority 1995, dated 2002).

Several values for one entry are separate records, joined by “and”; a condition that tells them apart may be missing. Equal values may be shown once. Read-outs that look alike come from different tables or passages of the source.

For data set [1] the following is noted: background art; cited from earlier work.
The target in data set [2] is Aβ1-42 (Homo sapiens, UniProt P05067). As to the kind of experiment: Thioflavine T fluorometric assay of amyloid formation by Aβ1-42. In kind it is biochemical. The following applies: for % of amyloid Aβ1-42: amyloid remaining, 30 μg Aβ with 10-fold molar excess of peptide, 2 days, room temperature, 0.1M tris pH 7.6, Aβ alone = 100.
Data set [3] concerns Aβ1-40. As to the kind of experiment: Thioflavine T fluorometric assay of amyloid formation by Aβ1-40. In kind it is biochemical. The following applies: for % of amyloid Aβ1-40: amyloid remaining, 30 μg Aβ with 10-fold molar excess of peptide, 2 days, room temperature, 0.1M tris pH 7.6, Aβ alone = 100; for amyloid formed, as % of the amyloid detectable in the absence of inhibitor: 24 h, Aβ 1 mg/ml.

Data set [4] deals with PrP106-126 (Homo sapiens, UniProt P04156). The following applies: same concentration as iPrP-12aa.
The target in data set [5] is T1, Aβ (Homo sapiens, UniProt P05067). In words: Redissolution of preformed Aβ fibrils by anti-amyloid peptide 1. The class given is biochemical. The following applies: molar ratio 1:50 (Aβ:anti-amyloid peptide 1), 15 minutes to 24 hours.
Data set [6] has as its system amyloid A (SEQ ID NO: 13). As to the kind of experiment: Fibril formation by the amyloidogenic peptide of amyloid A. In kind it is biochemical. The following applies: 1 mg/ml, 24 hours, molar ratio 1:5 or 1:20. The method, then: (§1) FIG. 8 is a bar graph showing the effect of anti-amyloid peptide 1 on the amyloid formation by Aβ and of peptides derived from the amyloidogenic sequence of gelsolin amyloid and amyloid A. Either β or the fifteen amino acid peptides containing the amyloidogenic sequence of gelsolin amyloid (SEQ ID NO: 12) and amyloid A (SEQ ID NO: 13) were incubated in a concentration of 1 mg/ml for 24 hours without and with anti-amyloid peptide 1 in a molar ratio of 1:5 or 1:20.

Data set [7] relates to gelsolin amyloid (SEQ ID NO: 12). As to the kind of experiment: Fibril formation by the amyloidogenic peptide of gelsolin amyloid. In kind it is biochemical. The following applies: 1 mg/ml, 24 hours, molar ratio 1:5 or 1:20. The method, then: as §1
For data set [8], the target named is T1, Aβ. As to the kind of experiment: Aβ amyloid fibril formation in vitro (Aβ variant not named). In kind it is biochemical. The following applies: 50-fold molar excess over soluble amyloid monomers.
Data set [9] can be described thus: Aggregation of the peptide incubated alone. In kind it is physicochemical. The following applies: for amyloid-like material formed by the peptide alone, electron microscopy: 6 days, same concentration as with Aβ. Here is the method: Based on these criteria, an 11 amino acid peptide, called inhibitor of Aβ fibrillogenesis peptide (iAβ) was designed, which has a low probability of adopting a β-sheet conformation due to the presence of proline residues (FIG. 9). The circular dichroism spectrum of iAβ in aqueous solution was typical of unordered structures (FIG. 10). Samples of iAβ at different concentrations as well as samples incubated for several days have similar spectra (FIG. 10).
The inhibition of fibril formation and the dissolution of preformed fibrils by iAβ was also analyzed by negative-staining electron microscopy (FIGS. 15a -f). Aβ1-40 (2 mg/ml) preincubated for 6 days at 37° C. formed typical 8-10 nm unbranched fibrils (Castano et al., biochem. Biophys. Res. Commun. 141:782-789, 1986) (FIG. 15a).

Data set [10] has as its system Aβ1-40. As to the kind of experiment: Negative-staining electron microscopy of Aβ1-40 fibril formation and dissolution. The following applies: for effect on Aβ1-40 fibril formation by electron microscopy: Aβ1-40 2 mg/ml, 40-fold excess from the start, 6 days, 37° C. In kind it is biochemical.
Data set [11] deals with Aβ with heparan-sulfate proteoglycan (Homo sapiens, UniProt P05067). As to the kind of experiment: Heparan-sulfate proteoglycan-induced Aβ fibrillogenesis. In kind it is biochemical. The following applies: preliminary experiments.
The target in data set [12] is Aβ1-40 fibrils (Homo sapiens, UniProt P05067). In words: Dissolution of preformed Aβ1-40 fibrils, fluorometric quantitation. The class given is biochemical.
Data set [13] concerns the target T2, Aβ1-40 with human plasma apolipoprotein E (Homo sapiens, UniProt P05067).
T2 construct: 30 μg of Aβ1-40 were incubated with or without 2.4 μg of human plasma apolipoprotein E; made in house; host or cells: Aβ1-40: chemical solid-phase synthesis
In words: Promotion of Aβ fibrillogenesis induced by apolipoprotein E, thioflavine T assay. The class given is biochemical. The following applies: 30 μg Aβ1-40, 2.4 μg apoE, 1:10 (Aβ:iAβ), 24 h, room temperature. The method, then:
Samples of Aβ alone or Aβ/apoE were incubated also with 1:10 (Aβ:iAβ) of the inhibitor. All the incubations were performed for 24 h at room temperature. Amyloid formation was evaluated by the thioflavine T fluorometric assay. The average of two different experiments is shown.

For data set [14], the system named is Aβ1-40. In words: Aβ-iAβ binding by quenching of intrinsic Tyr10 fluorescence of Aβ.
Data set [15] concerns the target Aβ1-42 fibrils (Homo sapiens, UniProt P05067). As to the kind of experiment: Dissolution of preformed Aβ1-42 fibrils, fluorometric quantitation. In kind it is biochemical. The following applies: 40-fold molar excess of iAβ, 24 h incubation.
The test system of data set [16] is amyloid-A (AA) deposition. As to the kind of experiment: Experimental murine model of amyloid-A amyloidosis (AEF and silver nitrate), amyloid in spleen. The class given is in vivo, BALB/c mice.
For data set [17] the following is noted: Kisilevsky et al., 1995; cited from earlier work.

Chain of Aβ1-40 (P05067 18-40): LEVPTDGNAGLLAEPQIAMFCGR
Chain of Aβ1-42 (P05067 18-42): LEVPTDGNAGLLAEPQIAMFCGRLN
Chain of Aβ1-40 fibrils (P05067 672-711): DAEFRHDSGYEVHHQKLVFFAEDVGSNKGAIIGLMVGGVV
T1 sequence (P05067 672-711 limits assumed): as the sequence (P05067 672-711) above
Chain of Aβ with heparan-sulfate proteoglycan (P05067 672-711 limits assumed): as the sequence (P05067 672-711) above

With `COc1cccc2c1C(=O)c1c(O)c3c(c(O)c1C2=O)C[C@@](O)(C(=O)CO)C[C@@H]3O[C@H]1C[C@H](N)[C@H](I)[C@H](C)O1` [IDOX, Anthracycline 4′-iodo-4′-deoxy-doxorubicin], the “toxicity” value in data set [1] is “extremely toxic”.

On to “Aβ18-21: short Aβ fragment (VFFA) [reference compound]”, for which the “% of amyloid Aβ1-42” value in data set [2] was determined as 98.5 ± 5.3%. Also, the “% of amyloid Aβ1-40” value in [3] is 105 ± 3.2%.

With “CP1: unrelated control peptide of 12 amino acids (VHVSEEGTEPA) [reference compound]”, the “% of amyloid Aβ1-42” value in data set [2] is reported as 101.3 ± 1.9%. Further, the “% of amyloid Aβ1-40” value in data set [3] is listed as 98.4 ± 1.2%. The “effect on amyloid formation by PrP106-126” value in [4] is on record as “No significant effect”.

On to “CP2: control peptide (GYLTVAAVFRG) [reference compound]”, for which, in data set [2], the “% of amyloid Aβ1-42” value is on record as 125.3 ± 3.9%. In addition, in data set [3], the “% of amyloid Aβ1-40” value is reported as 111.3 ± 4.1%.

Take “CP3: control peptide (PADVPLAPRAVD) [reference compound]”: in [2], the “% of amyloid Aβ1-42” value is 94.4 ± 1.4%. In addition, the “% of amyloid Aβ1-40” value in data set [3] is given as 87.7 ± 2.0%.

As to “Leu Val Phe Phe Ala [Aβ17-21, reference compound]”, in data set [2], the “% of amyloid Aβ1-42” value is 92.3 ± 3.4%. Further, the “% of amyloid Aβ1-40” value in data set [3] worked out at 89.2 ± 2.7%.

Consider Pro-Phe-Phe [iAβ6], for which, in [2], the “% of amyloid Aβ1-42” value turned out to be 88.9 ± 2.6%. Also, in data set [3], the “% of amyloid Aβ1-40” value is 108.1 ± 7.9%.

Consider “anti-amyloid peptide 1: 15-amino acid anti-amyloid peptide (SRGDLPFFPVPIGDS)”, for which the “dissolution of preformed Aβ fibrils” value in [5] is reported as “Dissolution of preformed fibrils also occurred”. For the same molecule, the “inhibition of fibril formation of the amyloid-A peptide” value in data set [6] was “inhibits the fibril formation”. The “inhibition of fibril formation of the gelsolin related amyloid peptide” value in data set [7] is on record as “inhibits the fibril formation”. Further, the “inhibition of amyloid fibril formation” value in data set [8] worked out at 90%.

Consider “control peptide: 12 residue non-related control peptide (VHVSEEGTEPEA) [reference compound]”, for which the “amyloid-like material formed by the peptide alone, electron microscopy” value in [9] is “formed no amyloid-like material”. The “effect on amyloid formation by Aβ1-42” value in [2] (FIG. 12) is reported as “did not alter amyloid formation”. In [3] (FIGS. 12 and 13), the “effect on amyloid formation by Aβ1-40” value is listed as “did not alter amyloid formation”. Also, the “effect on Aβ1-40 fibril formation by electron microscopy” value in data set [10] is “did not produce any effect”.

On to “iAβ1: shorter derivative of iAβ (RDLPFFPVD)”, for which, in data set [2], the “% of amyloid Aβ1-42” value was 85.7 ± 11.6%. The “% of amyloid Aβ1-40” value in [3] was determined as 55.2 ± 2.1%.

“iAβ2: seven amino acid residue shorter derivative of iAβ (LPFFPVD)”: the “% of amyloid Aβ1-42” value in data set [2] turned out to be 61.3 ± 3.0%. In addition, the “% of amyloid Aβ1-40” value in [3] is on record as 36.7 ± 4.8%.

As to “iAβ3: shorter derivative of iAβ; valine inserted into the sequence of SEQ ID NO:18 (LPFFVD)”, the “% of amyloid Aβ1-42” value in [2] is recorded as 87.1 ± 6.1%. Further, the “% of amyloid Aβ1-40” value in [3] was found to be 90.1 ± 1.3%.

Consider “iAβ4: five residue derivative of iAβ; proline substituted for valine of Aβ 17-21, aspartic acid at the end (LPFFD)”, for which the “% of amyloid Aβ1-42” value in [2] came out at 45.4 ± 0.6%. Besides, the “% of amyloid Aβ1-40” value in data set [3] worked out at 28.7 ± 1.7%.

Take iAβ5: shorter derivative of iAβ (LPFF): the “% of amyloid Aβ1-42” value in data set [2] worked out at 82.4 ± 5.0%. In addition, the “% of amyloid Aβ1-40” value in data set [3] amounted to 92.1 ± 1.3%.

As for “iAβ: 11 amino acid peptide partially homologous to Aβ residues 17-21, with proline residues and charged ends (RDLPFFPVPID)”, the “amyloid-like material formed by the peptide alone, electron microscopy” value in [9] is reported as “formed no amyloid-like material”. In addition, the “aggregation of the peptide” value in [9] (even at high concentrations (4 mg/ml) or after more than 30 days of incubation) was “did not aggregate”. Moreover, the “inhibition of amyloid formation” value was determined as 28.7% in data set [2] (5-fold molar excess of iAβ over Aβ1-42, 24 h); 72.3% in data set [2] (20-fold molar excess of iAβ over Aβ1-42, 24 h); 80.6% in data set [2] (40-fold molar excess of iAβ over Aβ1-42, 24 h). Moreover, in [2], the “% of amyloid Aβ1-42” value is 57.9 ± 1.3%. For the same molecule, the “amyloid formed, as % of the amyloid detectable in the absence of inhibitor” value in [3] (5-fold molar excess of iAβ) turned out to be 33.9%; in data set [3] (20-fold molar excess of iAβ), 13.7%. The “% of amyloid Aβ1-40” value in data set [3] came out at 25.5 ± 0.7%. Besides, in [11], the “effect on heparan-sulfate proteoglycan-induced Aβ fibrillogenesis” value is “blocked”. Besides, the “incubation time to maximum level of fibril dissolution” value in data set [12] (40-fold molar excess of iAβ (FIG. 14B), Aβ variant not stated) was 2 days. For the same molecule, the “dissolution of preformed Aβ1-40 fibrils” value in data set [12] (40-fold molar excess of iAβ, 24 h incubation) is “almost complete dissolution”. The “effect on apo E-induced promotion of Aβ fibrillogenesis” value in [13] was “blocked the promotion of Aβ fibrillogenesis”. For the same molecule, in data set [10], the “effect on Aβ1-40 fibril formation by electron microscopy” value is given as “only amorphous aggregates were obtained”. The “dissolution of preformed Aβ1-40 fibrils by electron microscopy” value in data set [10] (fibrils preformed 6 days at 37° C., then 2 days with 1:40 molar ratio Aβ:iAβ) is “almost completely dissolved”. The “maximum quenching of Aβ fluorescence, % of total fluorescence” value in [14] (at approximately 4 μM of iAβ, 25° C., 5 mM Tris pH 7.4) came to 12.6%. Also, the Kd in [14] (non-linear regression of binding data to a rectangular hyperbola, read-out: relative dissociation constant) stood at 75.9 ± 6.5 nM. Besides, in data set [15], the Aβ1-42 fibril reduction came to 51%. Further, the “decrease of the area occupied by amyloid in the spleen versus animals treated without the inhibitor” value in data set [16] (5 mg iAβ injected together with AEF after 24 h preincubation, 5 days) is “approximately 86.4%”. The “amyloid in spleen by image analysis, AEF/SN + iAβ, single animal” value in data set [16] (AEF 100 μg preincubated 24 h with 5 mg peptide, sacrificed at 5 days, AEF/SN alone average 31.2) is 4.35 and 3.68 and 5.32 and 3.67. Besides, the “amyloid in spleen by image analysis, AEF/SN + iAβ, Average ± SE” value in [16] (four animals, AEF 100 μg preincubated 24 h with 5 mg peptide, 5 days, AEF/SN alone 31.2 ± 0.75) came out at 4.26 ± 0.39.

Turning to poly- (vinylsulfonate), in data set [17], the “toxicity” value is listed as “acutely toxic”.
